pEC50: −log10 of the molar value.
molecular target: T1, glucokinase (GK) (Homo sapiens, UniProt P35557); test: enzymatic glucokinase activity assay (ATP consumption, KinaseGlo luminescence); format: biochemical; settings: recombinant GK residues 12-465; 5 μM ATP, 5 mM Glucose; Kact = concentration that displays 50% of the maximal increase in GK activity; read-out: pKact
T1 construct: I.D. No. 1 corresponds to residues 12-465 of glucokinase; made in house; host or cells: E. coli DH10b-T1r
T1 sequence (P35557 with tags, fused parts or gaps isoform P35557-2): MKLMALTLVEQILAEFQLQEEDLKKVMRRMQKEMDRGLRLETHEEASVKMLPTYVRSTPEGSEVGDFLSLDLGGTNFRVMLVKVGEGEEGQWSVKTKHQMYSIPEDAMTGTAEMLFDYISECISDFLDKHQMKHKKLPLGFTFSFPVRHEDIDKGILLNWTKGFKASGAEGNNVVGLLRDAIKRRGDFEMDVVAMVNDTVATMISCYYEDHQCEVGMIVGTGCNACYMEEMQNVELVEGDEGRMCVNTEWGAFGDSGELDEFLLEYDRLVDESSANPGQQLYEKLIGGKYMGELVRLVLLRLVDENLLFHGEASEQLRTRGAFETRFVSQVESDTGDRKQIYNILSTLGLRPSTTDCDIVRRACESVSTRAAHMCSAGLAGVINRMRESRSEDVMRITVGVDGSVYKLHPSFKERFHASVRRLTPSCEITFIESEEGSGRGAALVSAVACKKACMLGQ
Summary of the method: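 Activation was scored as ATP consumption, quantified by KinaseGlo luciferase luminescence after a 60 min room-temperature reaction. Reactions contained E. coli-expressed, purified GK, 5 μM ATP, 5 mM glucose, 10 mM MgCl2, 0.01% Brij35 and 2% DMSO at pH 7.2; pKact was fitted non-linearly.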

Q: `COCCC(C)(C)S(=O)(=O)c1ccn([C@H](CC2CCOCC2)C(=O)Nc2nc3ccc(OC)nc3s2)c(=O)c1` [Example 120, (R)-2-(4-(4-methoxy-2-methylbutan-2-ylsulfonyl)-2-oxopyridin-1(2H)-yl)-N-(5-methoxythiazolo[5,4-b]pyridin-2-yl)-3-(tetrahydro-2H-pyran-4-yl)propanamide] was tested. Which pEC50 did it give?
A: < 4.80

Q: How did the pEC50 turn out when `COCCC(C)(C)S(=O)(=O)c1ccn([C@@H](CC2CCOCC2)C(=O)Nc2nc3ccc(OC)nc3s2)c(=O)c1` [Example 121, (S)-2-(4-(4-methoxy-2-methylbutan-2-ylsulfonyl)-2-oxopyridin-1(2H)-yl)-N-(5-methoxythiazolo[5,4-b]pyridin-2-yl)-3-(tetrahydro-2H-pyran-4-yl)propanamide] was run?
A: 4.80 to 5.80

Q: How did the pEC50 turn out when `COc1ccc2nc(NC(=O)[C@@H](CC3CCCCC3)n3c(C)cc(S(=O)(=O)C4CC4)cc3=O)sc2n1` [Example 122, (R)-3-cyclohexyl-2-(4-(cyclopropylsulfonyl)-6-methyl-2-oxopyridin-1(2H)-yl)-N-(5-methoxythiazolo[5,4-b]pyridin-2-yl)propanamide] was run?
A: 4.80 to 5.80

Q: `COc1ccc2nc(NC(=O)[C@H](CC3CCCCC3)n3c(C)cc(S(=O)(=O)C4CC4)cc3=O)sc2n1` [Example 123, (S)-3-cyclohexyl-2-(4-(cyclopropylsulfonyl)-6-methyl-2-oxopyridin-1(2H)-yl)-N-(5-methoxythiazolo[5,4-b]pyridin-2-yl)propanamide] was tested. Which pEC50 did it give?
A: > 5.80

Q: `O=C(Nc1ncc(Cl)s1)C(CC1CCCCC1)n1cc(Cl)c2sccc2c1=O` (stereo not drawn) [Example 124, 2-(7-chloro-4-oxothieno[3,2-c]pyridin-5(4H)-yl)-N-(5-chlorothiazol-2-yl)-3-cyclohexylpropanamide] was tested. Which pEC50 did it give?
A: < 4.80

Q: How did the pEC50 turn out when `COc1ccc2nc(NC(=O)C(CC3CCOCC3)n3ccc(N4CC[C@H](O)C4)cc3=O)sc2n1` (stereo partly drawn) [Example 125, 2-(4-((S)-3-hydroxypyrrolidin-1-yl)-2-oxopyridin-1(2H)-yl)-N-(5-methoxythiazolo[5,4-b]pyridin-2-yl)-3-(tetrahydro-2H-pyran-4-yl)propanamide] was run?
A: < 4.80

Q: `Cc1cc(-c2cccc(S(C)(=O)=O)c2)cc(=O)n1[C@@H](CC1CCCCC1)C(=O)Nc1nccs1` [Example 126, (S)-3-cyclohexyl-2-(6-methyl-4-(3-(methylsulfonyl)phenyl)-2-oxopyridin-1(2H)-yl)-N-(thiazol-2-yl)propanamide] was tested. Which pEC50 did it give?
A: < 4.80

Q: `COc1ccc2nc(NC(=O)C(CC3CCOCC3)n3ccc(S(=O)(=O)C4CC4)cc3=O)sc2c1` (stereo not drawn) [Example 127, 2-(4-(cyclopropylsulfonyl)-2-oxopyridin-1(2H)-yl)-N-(6-methoxybenzo[d]thiazol-2-yl)-3-(tetrahydro-2H-pyran-4-yl)propanamide] was tested. Which pEC50 did it give?
A: 4.80 to 5.80

Q: `CN(C)c1ccc2nc(NC(=O)C(CC3CCOCC3)n3ccc(S(=O)(=O)C4CC4)cc3=O)sc2n1` (stereo not drawn) [Example 128, 2-(4-(cyclopropylsulfonyl)-2-oxopyridin-1(2H)-yl)-N-(5-(dimethylamino)thiazolo[5,4-b]pyridin-2-yl)-3-(tetrahydro-2H-pyran-4-yl)propanamide] was tested. Which pEC50 did it give?
A: > 5.80

Q: How did the pEC50 turn out when `O=C(Nc1ncc(Cl)s1)C(CC1CCCCC1)n1ccc(C(=O)N2CCCC2)cc1=O` (stereo not drawn) [Example 129, N-(5-chlorothiazol-2-yl)-3-cyclohexyl-2-(2-oxo-4-(pyrrolidine-1-carbonyl)pyridin-1(2H)-yl)propanamide] was run?
A: 4.80 to 5.80

Q: With `O=C(Nc1nc2ccc(Cl)cc2s1)C(CC1CCOCC1)n1ccc(S(=O)(=O)C2CC2)cc1=O` (stereo not drawn) [Example 130, N-(6-chlorobenzo[d]thiazol-2-yl)-2-(4-(cyclopropylsulfonyl)-2-oxopyridin-1(2H)-yl)-3-(tetrahydro-2H-pyran-4-yl)propanamide] as the compound, how does the pEC50 read?
A: 4.80 to 5.80

Q: With `O=C(Nc1nc2ccc(F)cc2s1)C(CC1CCOCC1)n1ccc(S(=O)(=O)C2CC2)cc1=O` (stereo not drawn) [Example 131, 2-(4-(cyclopropylsulfonyl)-2-oxopyridin-1(2H)-yl)-N-(6-fluorobenzo[d]thiazol-2-yl)-3-(tetrahydro-2H-pyran-4-yl)propanamide] as the compound, how does the pEC50 read?
A: 4.80 to 5.80

Q: With `COC(C)(C)c1cnc(NC(=O)[C@@H](CC2CCOCC2)n2ccc(S(=O)(=O)C3CC3)cc2=O)s1` [Example 132, (R)-2-(4-(cyclopropylsulfonyl)-2-oxopyridin-1(2H)-yl)-N-(5-(2-methoxypropan-2-yl)thiazol-2-yl)-3-(tetrahydro-2H-pyran-4-yl)propanamide] as the compound, how does the pEC50 read?
A: 4.80 to 5.80

Q: How did the pEC50 turn out when `COC(C)(C)c1cnc(NC(=O)[C@H](CC2CCOCC2)n2ccc(S(=O)(=O)C3CC3)cc2=O)s1` [Example 133, (S)-2-(4-(cyclopropylsulfonyl)-2-oxopyridin-1(2H)-yl)-N-(5-(2-methoxypropan-2-yl)thiazol-2-yl)-3-(tetrahydro-2H-pyran-4-yl)propanamide] was run?
A: 4.80 to 5.80

Q: With `Cc1cc(S(=O)(=O)Cc2cccs2)cc(=O)n1C(CC1CCOCC1)C(=O)Nc1ncc(Cl)s1` (stereo not drawn) [Example 134, N-(5-chlorothiazol-2-yl)-2-(6-methyl-2-oxo-4-(thiophen-2-ylmethylsulfonyl)pyridin-1(2H)-yl)-3-(tetrahydro-2H-pyran-4-yl)propanamide] as the compound, how does the pEC50 read?
A: > 5.80

Q: With `Cc1c(S(=O)(=O)C2CCCC2)c(C)c(=O)n([C@@H](CC2CCOCC2)C(=O)Nc2ncc(Cl)s2)c1C` [Example 135, (S)-N-(5-chlorothiazol-2-yl)-2-(4-(cyclopentylsulfonyl)-3,5,6-trimethyl-2-oxopyridin-1(2H)-yl)-3-(tetrahydro-2H-pyran-4-yl)propanamide] as the compound, how does the pEC50 read?
A: > 5.80

Q: How did the pEC50 turn out when `Cc1c(S(=O)(=O)C2CCCC2)c(C)c(=O)n([C@H](CC2CCOCC2)C(=O)Nc2ncc(Cl)s2)c1C` [Example 136, (R)-N-(5-chlorothiazol-2-yl)-2-(4-(cyclopentylsulfonyl)-3,5,6-trimethyl-2-oxopyridin-1(2H)-yl)-3-(tetrahydro-2H-pyran-4-yl)propanamide] was run?
A: 4.80 to 5.80

Q: With `O=C(Nc1ncc(Cc2ccc(F)cc2)s1)C(CC1CCOCC1)n1ccc(S(=O)(=O)C2CC2)cc1=O` (stereo not drawn) [Example 138, 2-(4-(cyclopropylsulfonyl)-2-oxopyridin-1(2H)-yl)-N-(5-(4-fluorobenzyl)thiazol-2-yl)-3-(tetrahydro-2H-pyran-4-yl)propanamide] as the compound, how does the pEC50 read?
A: 4.80 to 5.80

Q: With `O=C(Nc1nccs1)C(CC1CCOCC1)n1cc(S(=O)(=O)N2CCCC2)ccc1=O` (stereo not drawn) [Example 139, 2-(2-oxo-5-(pyrrolidin-1-ylsulfonyl)pyridin-1(2H)-yl)-3-(tetrahydro-2H-pyran-4-yl)-N-(thiazol-2-yl)propanamide] as the compound, how does the pEC50 read?
A: 4.80 to 5.80

Q: How did the pEC50 turn out when `O=C(Nc1ncc(Cl)s1)C(CC1CCOCC1)n1cc(S(=O)(=O)N2CCCC2)ccc1=O` (stereo not drawn) [Example 140, N-(5-chlorothiazol-2-yl)-2-(2-oxo-5-(pyrrolidin-1ylsulfonyl)pyridin-1(2H)-yl)-3-(tetrahydro-2H-pyran-4-yl)propanamide] was run?
A: 4.80 to 5.80

Q: How did the pEC50 turn out when `Cc1cc(S(=O)(=O)Cc2ccco2)cc(=O)n1[C@@H](CC1CCOCC1)C(=O)Nc1ncc(Cl)s1` [Example 141, (S)-N-(5-chlorothiazol-2-yl)-2-(4-(furan-2-ylmethylsulfonyl)-6-methyl-2-oxopyridin-1(2H)-yl)-3-(tetrahydro-2H-pyran-4-yl)propanamide] was run?
A: > 5.80

Q: With `Cc1cc(S(=O)(=O)Cc2ccco2)cc(=O)n1[C@H](CC1CCOCC1)C(=O)Nc1ncc(Cl)s1` [Example 142, (R)-N-(5-chlorothiazol-2-yl)-2-(4-(furan-2-ylmethylsulfonyl)-6-methyl-2-oxopyridin-1(2H)-yl)-3-(tetrahydro-2H-pyran-4-yl)propanamide] as the compound, how does the pEC50 read?
A: < 4.80

Q: How did the pEC50 turn out when `Cc1cc(-c2ncco2)cc(=O)n1C(CC1CCCCC1)C(=O)Nc1ncc(Cl)s1` (stereo not drawn) [Example 143, N-(5-chlorothiazol-2-yl)-3-cyclohexyl-2-(6-methyl-4-(oxazol-2-yl)-2-oxopyridin-1(2H)-yl)propanamide] was run?
A: 4.80 to 5.80

Q: How did the pEC50 turn out when `Cc1cc(S(=O)(=O)Cc2ccco2)cc(=O)n1C(CC1CCOCC1)C(=O)Nc1ncc(Cc2ccc(F)cc2)s1` (stereo not drawn) [Example 144, N-(5-(4-fluorobenzyl)thiazol-2-yl)-2-(4-(furan-2-ylmethylsulfonyl)-6-methyl-2-oxopyridin-1(2H)-yl)-3-(tetrahydro-2H-pyran-4-yl)propanamide] was run?
A: 4.80 to 5.80

Q: With `O=C(Nc1ncc(CN2CCOCC2)s1)C(CC1CCOCC1)n1ccc(S(=O)(=O)C2CC2)cc1=O` (stereo not drawn) [Example 145, 2-(4-(cyclopropylsulfonyl)-2-oxopyridin-1(2H)-yl)-N-(5-(morpholinomethyl)thiazol-2-yl)-3-(tetrahydro-2H-pyran-4-yl)propanamide] as the compound, how does the pEC50 read?
A: < 4.80

Q: `O=C(Nc1ncc(Cl)s1)C(CC1CCOCC1)n1ccc(S(=O)(=O)CC(F)(F)F)cc1=O` (stereo not drawn) [Example 146, N-(5-chlorothiazol-2-yl)-2-(2-oxo-4-(2,2,2-trifluoroethylsulfonyl)pyridin-1(2H)-yl)-3-(tetrahydro-2H-pyran-4-yl)propanamide] was tested. Which pEC50 did it give?
A: < 4.80

Q: With `CN1CCN(Cc2cnc(NC(=O)C(CC3CCOCC3)n3ccc(S(=O)(=O)C4CC4)cc3=O)s2)CC1` (stereo not drawn) [Example 147, 2-(4-(cyclopropylsulfonyl)-2-oxopyridin-1(2H)-yl)-N-(5-((4-methylpiperazin-1-yl)methyl)thiazol-2-yl)-3-(tetrahydro-2H-pyran-4-yl)propanamide] as the compound, how does the pEC50 read?
A: < 4.80

From patent publication US8163779B2, “Glucokinase activators” (Takeda San Diego, Inc., priority 2006, dated 2012)
